# Laboratory results: patent EP4011353A1 (Beiersdorf AG, priority 2020, dated 2022)
# Tests used:
# Assay type in all cases: physicochemical
# [1] = degradation of vitamin C at 40°C over 16 weeks, eutectic solvent compared to water (figure 1); details: 5 % vitamin C in eutectic solvent (5% vitamin C, 40% betaine, 55% glycerol) compared to water, 40 degrees
# [2] = color stability of vitamin C in closed and open glass flasks after 3 months at room temperature (figure 2)
# [3] = degradation of ascorbic acid after addition of water or ethanol to the eutectic liquid; details: addition of water or ethanol up to 15%, preferably up to 10%
# Source text: This liquid, stable at room temperature, can be incorporated into cosmetic formulas.
smiles,measurement,setting,value
"O=C1O[C@H]([C@@H](O)CO)C(O)=C1O [vitamin C, ascorbic acid]",degradation of vitamin C,[1],enhanced protection
same,stability of vitamin C,"[2]; 21% vitamin C in water, closed bottles",unstable
same,stability of vitamin C,"[2]; 21% vitamin C in water, opened glass bottles",unstable
same,stability of vitamin C,"[2]; in betaine and glycerol (21% vitamin C, 29% betaine, 50% glycerin), closed bottles",stable
same,degradation of the ascorbic acid,[3],without increased degradation
